Reference: patent US20230011398A1, “COMBINATION THERAPY APPROACH TO ELIMINATE HIV INFECTIONS” (priority 2019, published 2023)

Assays:
HIV-1-infected T cells = experiment: Annexin V / DEVD-FITC / p24 cell death assay in T cells with or without HIV-1 infection; assay type: cell-based, human; conditions: for IDB-induced killing of T cells latently infected by HIV-1: added to 0.1 μM IDB, SAR405 2 μM or ABT-263 0.2 μM; for IDB-induced cell death in HIV-1-infected CMT: autophagy inhibitor added to 100 nM IDB, 24 h
Procedure: Naïve T cells, activated T cells, CMT or EMT with or without infection with HIV-1 (NL4-3, 1 MOI) were cultured for 4 days in the presence of 30 nM CCL19 and 0.3 ng/ml IL-2 for 4 days to establish latent HIV infection. […] The cells were then incubated with 1 μM FITC-DEVD-FMK (Biovision), followed by staining with APC-Annexin V (Biolegend) and intracellular staining with PE-anti-HIV p24. The cells were analyzed by flow cytometry. The percentage of cell death was calculated by the loss of live cells negative for annexin V and DEVD staining by comparing treated and untreated groups: (untreated—treated)/untreated x 100%.

[1] = system: HIV-1-infected cells and uninfected bystander T cells; experiment: Mixed culture of HIV-1-infected and CellTrace Violet-labeled uninfected T cells; conditions: alone or together, 0.2 μM BMS-626529 present, 48 h
Procedure: To determine the specificity in the killing of HIV-1 infected cells, uninfected CD4 cells were labeled with CellTrace Violet dye (ThermoFisher Scientific) and mixed with HIV-1-infected cells at the ratio of 1:1. The cells were resuspended in RIPMI complete medium containing 0.2 μM BMS-626529, with 0.1 μM IDB, 0.2 μM ABT-263 and 2 μM SAR405 as indicated for 48 h. The cells were incubated with 1 μM FITC-DEVD-FMK, followed by staining with APC-Annexin and analyses by flow cytometry.

[2] = system: CMT latently infected with HIV-1; experiment: HIV-1 latency reversal in latently infected central memory T cells (p24 staining, HIV-1 mRNA RT-PCR); assay type: cell-based, human; conditions: for number of HIV-1 p24-producing T cells after latency reversal: latently infected CMT stimulated with IDB, SAR405 2 μM or CQ 10 μM
Excerpt: Flow cytometry. The following antibodies from Biolegend were used for flow cytometry: Pacific Blue-anti-mouse CD45 (1:100, 103126, clone 30-F11,) APC-anti-human CD45 (1:100, 304012, clone HI30), Pacific Blue-anti-human CD19 (1:100, 302232, clone HIB19), PE-anti-human CD4 (1:100, 317414, clone OKT4), APC/Fire-750-anti-human CD8 (1:100, 34474, clone SK1), FITC-anti-human CD56 (1:100, 392413, clone QA17A16), Pacific Blue-anti-human CD19 (1:100, 302232, clone HIB19), Pacific Blue-anti-human CD3 (1:100, 300329, clone HIT3a), PE/Cy7-anti-HLA-HLA-DR, DP, DQ (1:100, 361708, clone Tü139), PerCP/Cy5.5-anti-human CD11b (1:100, 301327, clone ICRF44), APC/Fire-750-anti-human CD163 (1:100, 333633, clone GHI/61), PE-anti-human CD123 (1:100, 306005, clone 6H6), Alexa Fluor 488 anti-human CD11c (1:100, 301618, clone 3.9), PerCP/Cy5.5-anti-human CD3 (1:100, 300328, clone HIT3a), PerCP/Cy5.5 anti-human CD123 (1:100, 306016, clone 6H6), FITC-anti-mouse CD45 (1:100, 103108, clone 30-F11), PE/Cy7 anti-human CD197 (CCR7) (1:100, 353226, clone G043H7), PE-anti-human CD45R0 (1:100, 304244, clone UCHL1), FITC-anti-human CD45RA (1:100, 304148, clone HI100) and Alexa Fluor 488-anti-CD68 (1:30, 333812, clone Y1/82A), PerCP/Cy5.5-anti-human CD19 (1:100, 302230, clone HIB19), PE-anti-human CD27 (1:100, 356406, clone M-T271) and Pacific Blue-anti-human IgD (1:100, 348224, clone IA6-2). PE-anti-human CD3 (1:100, 556612, clone SP34) and V50-anti-human CD4 (1:100, 560345, clone RPA-T4) were from BD Biosciences. The cells stained with indicated antibodies were analyzed using a BD LSR II flow cytometer (BD Biosciences). To detect HIV-1 p24, spleen cells from Hu-HSC mice were stimulated with 5 μg/ml PHA (Sigma) and 6 ng/ml IL-2 (Biolegend). The cells were stained for T cell markers, followed by fixation and permeabilization using the Cytofix/Cytoperm buffer (BD Bioscience) and intracellular staining with PE-conjugated anti-p24 (1:30, 6604667, clone KC57, Beckman Coulter). The cells were analyzed by flow cytometry using a BD LSR II flow cytometer (BD Bioscience) and FlowJo software (version 10.5.3, BD Bioscience).
T cell isolation and infection with HIV-1. Peripheral blood mononuclear cells (PBMCs) of anonymous healthy donors from the Gulf Coast Blood Center were used to purify CD4^+ T cells with anti-CD4 MACS beads (Miltenyi Biotec). CD3^+CD4^+CD45RA^+CD45RO^−CCR7^+ naïve T cells, CD3^+CD4^+CD45RA^−CD45RO^+CCR7+ central memory T cells (CMT) and CD3^+CD4^+CD45RA^−CD45RO^+CCR7^− effector memory T cells (EMT) were sorted using a BD FACSAria flow cytometer (BD Bioscience). Naive CD4^+ T cells were stimulated with 5 μg/ml PHA and 6 ng/ml IL-2 in RPMI complete medium for 2 days to generate activated CD4^+ T cells. Sorted T cell subsets or activated T cells were infected with HIV-1 CXCR4-tropic NL4-3 or CCRS-tropic AD8 (both virus clones were obtained from the NIH AIDS Reagent Program) at the indicated MOI for 2 h. The cells were washed with PBS and cultured in RPMI complete medium containing 30 nM CCL19 (Biolegend) and 0.3 ng/ml IL-2 (Biolegend) and for 4 days to establish latent HIV infection as described.
Naïve T cells, activated T cells, CMT or EMT with or without infection with HIV-1 (NL4-3, 1 MOI) were cultured for 4 days in the presence of 30 nM CCL19 and 0.3 ng/ml IL-2 for 4 days to establish latent HIV infection. The cells with or without HIV-1 infections were stimulated with 0.1 μM IDB (Ingenol-3,20-dibenzonate, ENZO Life Sciences) in the presence of 0.2 μM ABT-263 (Adooq Bioscience), 2 μM SAR405 (MedChemExpress) or 10 μM chloroquine (CQ, Sigma) as indicated for 48 h. The cells were then incubated with 1 μM FITC-DEVD-FMK (Biovision), followed by staining with APC-Annexin V (Biolegend) and intracellular staining with PE-anti-HIV p24. The cells were analyzed by flow cytometry. The percentage of cell death was calculated by the loss of live cells negative for annexin V and DEVD staining by comparing treated and untreated groups: (untreated—treated)/untreated x 100%. […]

[3] = system: HIV-1-infected Hu-HSC mice; experiment: SECH treatment of HIV-1-infected Hu-HSC mice (HIV-1 by RT-PCR, rebound after withdrawal); assay type: in vivo; conditions: JQ1 25 mg/kg b.w. included in SECH
Procedure: Raltegravir and BMS-663068 (20 mg/kg b.w.) were included as the ART regimen daily. Mice in the control group received ART only daily.
Quantification of HIV-1 mRNA and DNA. HIV-1 mRNA was measured by RT-PCR similar to the described protocols. […] The reaction was carried out by iTaq Universal Probes Supermix (Bio-Rad) with a QuantStudio 5 Real-Time PCR System and analyzed with the QuantStudio Design and Analysis Software (Applied Biosystem). Cycle threshold (Ct) values were calibrated using standard curve generated with the standard samples with known amounts of viral copies.
Spleen cells were isolated and red blood cells were lysed with ammonium chloride lysing buffer (0.15 M NH4Cl, 10 mM KHCO3, 0.1 mM EDTA). Bone marrow cells were collected from femur and tibia. […]
Generation of humanized mice for HIV-1 infection and cure studies. […] Three months later, reconstitution of human immune cells in mouse peripheral blood was determined by flow cytometry. […]
Raltegravir and BMS-663068 (20 mg/kg b.w.) alone were also administered on the alternate days. […] During treatments, mice were monitored daily for body weight, food consumption and mobilities. […]
Peripheral blood was collected at different intervals to detect HIV-1 mRNA by RT-PCR. […] Virus clearance was determined in the spleen, bone marrow by RT-PCR, TZA assay and p24 intracellular staining.

[4] = system: splenocytes of HIV-1-infected Hu-HSC mice; experiment: PHA stimulation of splenocytes from Hu-HSC mice 10 days after HIV-1 infection; assay type: cell-based; conditions: PHA 24 h
Procedure: FIGS. 11A-11C show analyses of Hu-HSC mice by flow cytometry. (FIG. 11A) Flow cytometry analyses of immune cells in the peripheral blood of Hu-HSC mice. NK, nature killer cells; DC, dendritic cells; M1, M1 macrophages; M2, M2 macrophages. (FIG. 11B) Spleen cells were isolated from Hu-HSC mice (n=4) 10 days post HIV-1 infection and cultured with or without PHA for 24 h. Culture media were collected for HIV-1 mRNA determination by RT-PCR. Data are presented as mean ±SD. PHA vs. control, **p=0.0088 (unpaired two-tailed t test). (FIG. 11C) Spleen cells treated in (b) were stained for CD4, followed by intracellular staining of HIV-1 p24 and flow cytometry analysis. […] Data are presented as mean ±SD. PHA vs. control, **p=0.0003 (unpaired two-tailed t test).
Flow cytometry. […] The cells stained with indicated antibodies were analyzed using a BD LSR II flow cytometer (BD Biosciences). […] The cells were analyzed by flow cytometry using a BD LSR II flow cytometer (BD Bioscience) and FlowJo software (version 10.5.3, BD Bioscience).

Row | Molecule | IDB-induced killing of T cells latently infected by HIV-1 (HIV-1-infected T cells; 48 h) | killing of HIV-1-infected cells in mixed culture [1] | killing of uninfected bystander cells in mixed culture [1] | IDB-induced cell death in HIV-1-infected CMT (HIV-1-infected T cells) | number of HIV-1 p24-producing T cells after latency reversal [2] | other results
1 | CC1(C)CCC(c2ccc(Cl)cc2)=C(CN2CCN(c3ccc(C(=O)NS(=O)(=O)c4ccc(N[C@H](CCN5CCOCC5)CSc5ccccc5)c(S(=O)(=O)C(F)(F)F)c4)cc3)CC2)C1 [ABT-263, navitoclax] | increased IDB-mediated cell death | killed HIV-1-infected cells | resistant | – | – | loss of viable HIV-1 p24+ cells in IDB-stimulated HIV-1-infected cells (HIV-1-infected T cells; ABT-263 0.2 μM with IDB, 48 h): significantly increased
2 | CCN(CC)CCCC(C)Nc1ccnc2cc(Cl)ccc12 (centres unmarked) [CQ, Chloroquine] | – | – | – | promoted | reduced the number of HIV-1 p24-producing T cells | –
3 | Cc1sc2c(c1C)C(c1ccc(Cl)cc1)=N[C@@H](CC(=O)OC(C)(C)C)c1nnc(C)n1-2 [JQ1] | – | – | – | – | – | HIV-1 reactivation and clearance on inclusion of JQ1 in SECH [3]: further increased HIV-1 reactivation and clearance
4 | C[C@@H]1COCCN1c1cc(=O)n2c(n1)N(Cc1cncc(Cl)c1)[C@H](C(F)(F)F)CC2 [SAR405] | increased IDB-induced killing | killed HIV-1-infected cells | resistant | promoted | decreased the number of HIV-1 p24-producing T cells | induction of HIV-1 p24 expression by IDB-induced latency reversal ([2]; CMT infected with HIV-1 AD8 at 1 MOI): inhibited
5 | phytohemagglutinin [PHA] | – | – | – | – | – | latency reversal of HIV-1 shown by induction of p24 expression ([2]; CMT, HIV-1 NL4-3 0.1 MOI, 4 days latency): led to latency reversal of HIV-1; latency reversal observed by expression of HIV-1 mRNA after stimulation ([2]; latently infected cells, pol RT-PCR): Latency reversal was also observed; expression of HIV-1 mRNA in splenocytes [4]: induced the expression of HIV-1 mRNA; production of Gag p24 in CD4+ T cells [4]: production of Gag p24
